# ± gives the expanded uncertainty stated by the source.
# Conditions: 283.15 K, Liquid, Vibrating tube method
smiles,measurement,setting,value
CCCCC(=O)OCC(COC(=O)CCCC)(COC(=O)CCCC)COC(=O)CCCC [pentaerythritol tetrapentanoate],mass density,735.2 kPa,1027.6 ± 1.2 kg/m3
same,mass density,767.3 kPa,1027.5 ± 1.2 kg/m3
same,mass density,795.3 kPa,1027.5 ± 1.2 kg/m3
same,mass density,819.4 kPa,1027.5 ± 1.2 kg/m3
same,mass density,839.6 kPa,1027.6 ± 1.2 kg/m3
same,mass density,865.5 kPa,1027.6 ± 1.2 kg/m3
same,mass density,888.6 kPa,1027.5 ± 1.2 kg/m3
same,mass density,912.5 kPa,1027.6 ± 1.2 kg/m3
same,mass density,938.4 kPa,1027.7 ± 1.2 kg/m3
same,mass density,969.9 kPa,1027.6 ± 1.2 kg/m3
same,mass density,997.3 kPa,1027.6 ± 1.2 kg/m3
same,mass density,1027 kPa,1027.7 ± 1.2 kg/m3
same,mass density,1064.4 kPa,1027.7 ± 1.2 kg/m3
same,mass density,1096.7 kPa,1027.7 ± 1.2 kg/m3
same,mass density,1131.3 kPa,1027.7 ± 1.2 kg/m3
same,mass density,1175 kPa,1027.7 ± 1.2 kg/m3
same,mass density,1212.2 kPa,1027.8 ± 1.2 kg/m3
same,mass density,1243.1 kPa,1027.7 ± 1.2 kg/m3
same,mass density,1258.2 kPa,1027.8 ± 1.2 kg/m3
same,mass density,1275 kPa,1027.8 ± 1.2 kg/m3
same,mass density,1289.5 kPa,1027.7 ± 1.2 kg/m3
same,mass density,1304.2 kPa,1027.8 ± 1.2 kg/m3
same,mass density,1321.8 kPa,1027.8 ± 1.2 kg/m3
same,mass density,1336.7 kPa,1027.8 ± 1.2 kg/m3
same,mass density,1351.8 kPa,1027.9 ± 1.2 kg/m3
same,mass density,1371.1 kPa,1027.9 ± 1.2 kg/m3
same,mass density,1421.6 kPa,1027.8 ± 1.2 kg/m3
same,mass density,1442.1 kPa,1027.9 ± 1.2 kg/m3
same,mass density,1459.8 kPa,1027.9 ± 1.2 kg/m3
same,mass density,1477.5 kPa,1027.9 ± 1.2 kg/m3
same,mass density,1499.7 kPa,1027.9 ± 1.2 kg/m3
same,mass density,1518.7 kPa,1027.9 ± 1.2 kg/m3
same,mass density,1561.4 kPa,1027.9 ± 1.2 kg/m3
same,mass density,1627.3 kPa,1028.1 ± 1.2 kg/m3
same,mass density,1648.9 kPa,1028.1 ± 1.2 kg/m3
same,mass density,1671.6 kPa,1028 ± 1.2 kg/m3
same,mass density,1695.7 kPa,1028 ± 1.2 kg/m3
same,mass density,1719.2 kPa,1028.1 ± 1.2 kg/m3
same,mass density,1748.3 kPa,1028.1 ± 1.2 kg/m3
same,mass density,1772.8 kPa,1028 ± 1.2 kg/m3
same,mass density,1798.3 kPa,1028 ± 1.2 kg/m3
same,mass density,1824.2 kPa,1028.1 ± 1.2 kg/m3
same,mass density,1856.3 kPa,1028.2 ± 1.2 kg/m3
same,mass density,1883 kPa,1028.2 ± 1.2 kg/m3
same,mass density,1911.7 kPa,1028.1 ± 1.2 kg/m3
same,mass density,1940.6 kPa,1028.2 ± 1.2 kg/m3
same,mass density,1976.1 kPa,1028.2 ± 1.2 kg/m3
same,mass density,2006.6 kPa,1028.2 ± 1.2 kg/m3
same,mass density,2039.2 kPa,1028.3 ± 1.2 kg/m3
same,mass density,2073.9 kPa,1028.3 ± 1.2 kg/m3
same,mass density,2114 kPa,1028.3 ± 1.2 kg/m3
same,mass density,2165.9 kPa,1028.3 ± 1.2 kg/m3
same,mass density,2243 kPa,1028.4 ± 1.2 kg/m3
same,mass density,2290.5 kPa,1028.4 ± 1.2 kg/m3
same,mass density,2304.2 kPa,1028.4 ± 1.2 kg/m3
same,mass density,2315.5 kPa,1028.5 ± 1.2 kg/m3
same,mass density,2325.4 kPa,1028.5 ± 1.2 kg/m3
same,mass density,2335.1 kPa,1028.5 ± 1.2 kg/m3
same,mass density,2345 kPa,1028.4 ± 1.2 kg/m3
same,mass density,2356.8 kPa,1028.4 ± 1.2 kg/m3
same,mass density,2367 kPa,1028.5 ± 1.2 kg/m3
same,mass density,2376.9 kPa,1028.5 ± 1.2 kg/m3
same,mass density,2387.1 kPa,1028.5 ± 1.2 kg/m3
same,mass density,2399.6 kPa,1028.4 ± 1.2 kg/m3
same,mass density,2409.9 kPa,1028.5 ± 1.2 kg/m3
same,mass density,2419.9 kPa,1028.6 ± 1.2 kg/m3
same,mass density,2432.6 kPa,1028.5 ± 1.2 kg/m3
same,mass density,2443.2 kPa,1028.4 ± 1.2 kg/m3
same,mass density,2453.4 kPa,1028.5 ± 1.2 kg/m3
same,mass density,2464 kPa,1028.6 ± 1.2 kg/m3
same,mass density,2476.8 kPa,1028.5 ± 1.2 kg/m3
same,mass density,2487.6 kPa,1028.7 ± 1.2 kg/m3
same,mass density,2498.3 kPa,1028.4 ± 1.2 kg/m3
same,mass density,2511.9 kPa,1028.5 ± 1.2 kg/m3
same,mass density,2523 kPa,1028.4 ± 1.2 kg/m3
same,mass density,2534.1 kPa,1028.6 ± 1.2 kg/m3
same,mass density,2545.9 kPa,1028.6 ± 1.2 kg/m3
same,mass density,2559.4 kPa,1028.6 ± 1.2 kg/m3
same,mass density,2570.3 kPa,1028.6 ± 1.2 kg/m3
same,mass density,2581.9 kPa,1028.6 ± 1.2 kg/m3

# Source: the NIST ThermoML archive (doi:10.1021/je060271a)
